Several values for one entry are separate records, joined by “and”; a condition that tells them apart may be missing. Equal values may be shown once.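 Values below derive from 48-hour exposures of cells grown in 96-well plates, with endpoints linearly interpolated between the two concentrations bracketing the appropriate inhibition level. GI50 = concentration required for 50% inhibition of growth. TGI marks complete inhibition of growth.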

Results on 16 compounds are retold here after PubChem BioAssay (NCI).

The first test relates to NCI/ADR-RES ovarian. Kind of test: NCI tumour cell line growth inhibition, 48 h.
Consider `Cc1cc(N2CCCCC2)nc(N(CCNc2ccnc3cc(Cl)ccc23)Cc2ccco2)n1`, for which the GI50 is 1.79 µM and the TGI amounted to 3.71 µM.

As for `O=C(O)[C@@H]1C2CC([C@@H]1C(=O)O)[C@H](N1C(=O)CCC1=O)[C@@H]2Br` (stereo partly drawn), the TGI was more than 100 µM.

Take `CCCN1C(=O)/C(=c2\sc3n(c2=O)C2C(NN=3)N(CC)C(=O)N2CC)c2ccccc21` (stereo not drawn): the GI50 is 0.366 µM and the TGI worked out at 10.9 µM.

`c1ccc2[nH]c(-c3ccc(N4CCN(c5ccc(-c6nc7ccccc7[nH]6)cc5)CC4)cc3)nc2c1`: the GI50 is more than 100 µM and the TGI is more than 100 µM.

As for `CC1(C)CCC2(C(=O)OC3OC(CO)C(O)C(O)C3O)CC[C@]3(C)C(=CCC4C5(C)CC[C@H](OC6OC(C(=O)O)C(O)C(O)C6O)C(C)(C)C5CCC43C)C2C1` (stereo partly drawn), the GI50 was more than 50 µM and the TGI is more than 50 µM.

Take `O=S(=O)(c1ccc(NC(=S)NCc2cccnc2)cc1)N1CCCCC1`: the GI50 was 8.36 µM and the TGI was more than 100 µM.

Turning to `Fc1ccc2[nH]cc(Cc3c[nH]c4ccc(F)cc34)c2c1`, the GI50 was 17.2 µM and the TGI is 90 µM.

As to `C=C1C(=O)O[C@@H]2C1CC(=O)C(C)CC/C=C(\C)CCC[C@H](C)[C@H]2OC(C)=O` (stereo partly drawn), the GI50 is 15.3 µM and the TGI came to 40.9 µM.

On to `Cc1ccc(C(=O)Nc2ccc(S(=O)(=O)O)c3cc(S(=O)(=O)O)cc(S(=O)(=O)O)c23)cc1NC(=O)c1cccc(N)c1`, for which the TGI was more than 100 µM.

The test system of a further test is HCC-2998 colon. Kind of test: NCI tumour cell line growth inhibition, 48 h.
With `O=c1cc(CNc2cc(F)cc(F)c2)c2ccc(I)cc2[nH]1`, the GI50 was more than 64.9 µM and the TGI is more than 100 µM.

For `CCCN(Cc1ccc(F)cc1)c1ccc(CO)c(Cl)c1`, the GI50 is 8.9 µM and the TGI amounted to 22.5 µM.

As for `CC[C@](C)(O)C(=O)O[C@H]1C(=O)O[C@@H]2C[C@H]3C(C)=CC(=O)[C@@H](O)[C@]3(C)[C@H]3[C@@]4(O)OC[C@]32[C@@H]1[C@@H](C)[C@H]4O`, the GI50 was 0.12 µM; the TGI was 0.469 µM and 0.316 µM.

For `NC(=O)[C@H]1CCN(c2ncnc(N)c2F)C[C@@H]1N1CCC[C@@H](Nc2cc(Cl)cc(C(F)(F)F)c2)C1=O`, the GI50 was 14.6 µM and the TGI stood at 36.3 µM.

On to `CCN(CC)c1ccc(/C=C/c2cc(C)c3ccccc3n2)cc1`, for which the GI50 is 4.11 µM and the TGI stood at 81.1 µM.

Consider `O=C(CCl)c1ccc([N+](=O)[O-])o1`, for which the GI50 is 5.36 µM and the TGI came out at 11.2 µM.

The compound `Nc1ncnc2c1ccn2C1OC2COP(=O)(O)OC2C1O` (stereo not drawn) yielded a TGI of 9.45 µM.

Consider `Cc1cc(N2CCCCC2)nc(N(CCNc2ccnc3cc(Cl)ccc23)Cc2ccco2)n1`, for which the GI50 was 2.14 µM and the TGI was 4.48 µM.

`O=C(O)[C@@H]1C2CC([C@@H]1C(=O)O)[C@H](N1C(=O)CCC1=O)[C@@H]2Br` (stereo partly drawn) returned a TGI of more than 100 µM.

With `CCCN1C(=O)/C(=c2\sc3n(c2=O)C2C(NN=3)N(CC)C(=O)N2CC)c2ccccc21` (stereo not drawn), the GI50 is 1.56 µM and the TGI turned out to be 19.6 µM.

Consider `c1ccc2[nH]c(-c3ccc(N4CCN(c5ccc(-c6nc7ccccc7[nH]6)cc5)CC4)cc3)nc2c1`, for which the GI50 was more than 100 µM and the TGI was more than 100 µM.

Turning to `CC1(C)CCC2(C(=O)OC3OC(CO)C(O)C(O)C3O)CC[C@]3(C)C(=CCC4C5(C)CC[C@H](OC6OC(C(=O)O)C(O)C(O)C6O)C(C)(C)C5CCC43C)C2C1` (stereo partly drawn), the GI50 is 0.89 µM and the TGI was 1.64 µM.

For `O=S(=O)(c1ccc(NC(=S)NCc2cccnc2)cc1)N1CCCCC1`, the GI50 was more than 100 µM and the TGI is more than 100 µM.

Take `Fc1ccc2[nH]cc(Cc3c[nH]c4ccc(F)cc34)c2c1`: the GI50 was 13.3 µM and the TGI worked out at 30.3 µM.

For `C=C1C(=O)O[C@@H]2C1CC(=O)C(C)CC/C=C(\C)CCC[C@H](C)[C@H]2OC(C)=O` (stereo partly drawn), the GI50 is 15.6 µM and the TGI was determined as 29.9 µM.

Turning to `Cc1ccc(C(=O)Nc2ccc(S(=O)(=O)O)c3cc(S(=O)(=O)O)cc(S(=O)(=O)O)c23)cc1NC(=O)c1cccc(N)c1`, the TGI was more than 100 µM.

In the next test the test system is SK-OV-3 ovarian. Kind of test: NCI tumour cell line growth inhibition, 48 h.
Consider `O=c1cc(CNc2cc(F)cc(F)c2)c2ccc(I)cc2[nH]1`, for which the GI50 was 1.11 µM and the TGI was more than 100 µM.

Turning to `CCCN(Cc1ccc(F)cc1)c1ccc(CO)c(Cl)c1`, the GI50 is 6.31 µM and the TGI turned out to be 19 µM.

Consider `CC[C@](C)(O)C(=O)O[C@H]1C(=O)O[C@@H]2C[C@H]3C(C)=CC(=O)[C@@H](O)[C@]3(C)[C@H]3[C@@]4(O)OC[C@]32[C@@H]1[C@@H](C)[C@H]4O`, for which the GI50 was 1.34 µM; the TGI was 13.9 µM and 4.29 µM.

Turning to `NC(=O)[C@H]1CCN(c2ncnc(N)c2F)C[C@@H]1N1CCC[C@@H](Nc2cc(Cl)cc(C(F)(F)F)c2)C1=O`, the GI50 was 6.33 µM and the TGI was 56.3 µM.

Take `CCN(CC)c1ccc(/C=C/c2cc(C)c3ccccc3n2)cc1`: the GI50 was 3.41 µM and the TGI turned out to be 17.8 µM.

Turning to `O=C(CCl)c1ccc([N+](=O)[O-])o1`, the GI50 was 14.9 µM and the TGI was 30.5 µM.

In the case of `Nc1ncnc2c1ccn2C1OC2COP(=O)(O)OC2C1O` (stereo not drawn), the TGI turned out to be 24.5 µM.

As for `Cc1cc(N2CCCCC2)nc(N(CCNc2ccnc3cc(Cl)ccc23)Cc2ccco2)n1`, the GI50 was 2.15 µM and the TGI is 4.9 µM.

For `O=C(O)[C@@H]1C2CC([C@@H]1C(=O)O)[C@H](N1C(=O)CCC1=O)[C@@H]2Br` (stereo partly drawn), the TGI is more than 100 µM.

As for `CCCN1C(=O)/C(=c2\sc3n(c2=O)C2C(NN=3)N(CC)C(=O)N2CC)c2ccccc21` (stereo not drawn), the GI50 was 0.737 µM and the TGI amounted to 14.9 µM.

Turning to `O=S(=O)(c1ccc(NC(=S)NCc2cccnc2)cc1)N1CCCCC1`, the GI50 was more than 100 µM and the TGI was more than 100 µM.

Turning to `C=C1C(=O)O[C@@H]2C1CC(=O)C(C)CC/C=C(\C)CCC[C@H](C)[C@H]2OC(C)=O` (stereo partly drawn), the GI50 is 17 µM and the TGI is 34.1 µM.

`Cc1ccc(C(=O)Nc2ccc(S(=O)(=O)O)c3cc(S(=O)(=O)O)cc(S(=O)(=O)O)c23)cc1NC(=O)c1cccc(N)c1` yielded a TGI of more than 100 µM.
